Here are results for nine compounds from patent publication US8779004B2, “Stable emulsion formulations” (Amgen, Inc., priority 2006, dated 2014).

Series [1] in a line: Solubility of calcimimetics in oil phases (RP-HPLC). Format: physicochemical. To be noted: long-chain oil phases; for solubility at 18 h: oil or lipid, thermodynamic from solid. The procedure: The solubility measurements of the compounds were prepared by the addition of 1 g of drug substance to two milliliters of oil into a Wheaton 5 mL vial. The headspace was sparged with nitrogen, and enclosed with a West 4405/50 gray Teflon coated stopper and manually sealed by an aluminum overseal. The preparations were repeated again with the oils containing either purified egg or soy lecithin. All labeled vials were shaken at room temperature for eighteen hours on a platform shaker. After eighteen hours, the samples were diluted in mobile phase, and analyzed by the RP-HPLC method. Table 2 summarizes solubility results (expressed in mg/mL) of cinacalcet in various oil phases.

The next series addresses cytochrome P450 2D6 (Homo sapiens, UniProt P10635). To be noted: stated as known; cited from earlier work.
Series [2] can be described thus: Loss in drug strength due to adsorption to PVC tubing. Format: physicochemical. The procedure:
A solution of compound A was prepared in acetate mannitol buffer at pH 4. At this pH, the compound forms a clear solution of concentration 0.2 mg/mL. An equivalent emulsion was prepared at the same concentration with 5% soybean oil, 2% lecithin, 2% glycerin and 20 mM TRIS buffer at pH 9. PVC tubing was selected as an example of commonly used intravenous infusion set. 15 cm sections of this tube were filled with either the solution or emulsion formulation and clamped on both ends. These filled tubes were held at the ambient temperature for 1 hour. The formulations inside were collected and analyzed for drug content using reversed phase HPLC. […] Panel A: Compound A in acetate/mannitol solution, pre-exposure. Panel B: compound A in acetate/mannitol solution, after 1 hour of exposure to the PVC tubing. Panel C: compound A formulated in the emulsion of the invention, pre-exposure. Panel D: compound A formulated in the emulsion of the invention, pre-exposure, after 1 hour of exposure to the PVC tubing.

Series [3] is described as follows: Zeta potential titration of emulsions (droplet charge vs pH). Format: physicochemical. To be noted: SBO 10%, Lecithin 2% at pH 7; 5 mg/mL (formulation #1) versus 1 mg/mL (formulation #2). The procedure: Panel A, titration results of 1% EYP/10% SBO in 1 mM dibasic phosphate. Panel B, titration results of cinacalcet/1% EYP/10% SBO in 1 mM dibasic phosphate. Other components of the emulsions include 10% soybean oil, 1% egg lecithin, 2.25% glycerin and water. Panel C, titration results for Compound A. Emulsion composition: SBO 10%, Lecithin 2% at pH 7. Concentration of Compound A was 5 mg/mL for formulation #1 and 1 mg/mL for formulation #2.
The zeta potential measurements were made on a Malvern Zetasizer 4 laser-scattering particle electrophoretic analyzer that measures the electrophoretic mobility and zeta potential distribution. Samples were prepared for the zeta potential titration by diluting the emulsion approximately 2500 fold in 1 mM dibasic phosphate pH 9 and titrating the solution with 100 mM phosphoric acid in 0.5 pH unit increments. […] Theoretically, the emulsions are stabilized by this charge, which prevents the droplets from coalescing. […] In contrast, the cinacalcet emulsions achieve charge neutrality in the range of pH 7-7.5.

Series [4] can be described thus: Long-term storage stability of emulsions (assay, pH, particle size). Format: physicochemical. The conditions noted are these: Compound A emulsions; over 14 months at any of the storage conditions tested. The procedure: Calcimimetics emulsions for long-term studies were prepared at 5 mg/mL drug concentration, 5% SBO, 2% egg lecithin, 2% glycerin, 20 mM TRIS buffer at pH 9. The emulsions were packed in glass vials at 20 mL each and stored inverted in stability chambers. At each time-point, 3 vials from each chamber were pulled and analyzed for the calcimimetic concentration, pH and particle size. […] The values for pH dropped over time, with greater magnitude of drop seen at higher temperature.

For another series, the system named is rabbit ear vein. Nature of the series: Acute local venous toxicity / irritation in the rabbit ear vein (REV). Format: in vivo. On the set-up: Erythema / Edema: scale not given here. An excerpt: This Example illustrates the protective effect of the formulations of the invention as measured by irritation in the rabbit ear vein (REV). A typical protocol for evaluation of the local tolerance for formulations was as follows.
Dosing of animals. The rabbits used were male New Zealand rabbits weighing approximately 2.5 to 4 kg. The rabbits were acclimatized for a period of 10 days following receipt before the start of the study. The rabbits were randomized into groups based on the number of formulations to be studied. Typically 3 rabbits were used per group.
For each group of rabbits, the formulation containing the drug to be tested was dosed in the right marginal ear vein, with the corresponding placebo being dosed at the same time in the left marginal ear vein. The placebos were prepared such that they matched the formulation composition, and the technique of dosing for the drug formulations and the placebo formulations were kept the same. Typical dosing volumes ranged from 1 mL/kg to 5 mL/kg. The formulations were either dosed as (a) bolus injection wherein the entire dosing volume was administered within 5 minutes; (b) 30 minute infusion; or (c) a 2 hour infusion. The formulations were administered through appropriately sized syringes and catheters. The injection sites were marked with indelible ink for identification at each observation period. The rabbits were dosed based upon the Day 1 body weight.
Observation of animals. Each animal was observed cage side at least twice daily for mortality/morbundity. Each animal received a detailed clinical observation once prior to randomization, once prior to dosage administration and once daily thereafter.
Any abnormalities were recorded as they were observed. Observations for local irritation were scored according to the following scale
At each interval the area of irritation (if present) was also measured. The actual length and width in mm was recorded.
On day 3 the animals were euthanized and the tissues from the Pinna of the left and right ear, and any gross lesions (if present) of the ear or ear vein were collected. Histopathology was performed on the collected tissues. After fixation, the pinna was tripped into a total of 4 sections of 1 cm each; one of which included the deposition site (location of the end of the catheter in the ear) and one from approximately 1-, 2-, and 3-cm downstream from the deposition site. Each section included skin, cartilage, vein and other soft tissue. These tissues were then embedded in paraffin, sectioned and stained with hematoxylin and eosin, and examined via light microscopy.

The mark [5] stands for this setting: emulsion with TRIS buffer 20 mM, pH 9, 2-hour infusion, 2 mg/kg (conc. 5 mg/mL), 0 h.
Where [6] appears, read: emulsion with TRIS buffer 20 mM, pH 9, 2-hour infusion, 2 mg/kg (conc. 5 mg/mL), 48 h.
Setting [7] is: emulsion with TRIS buffer 20 mM, pH 9, 2-hour infusion, 6 mg/kg (conc. 5 mg/mL), 0 h.
The mark [8] stands for this setting: emulsion with TRIS buffer 20 mM, pH 9, 2-hour infusion, 6 mg/kg (conc. 5 mg/mL), 48 h.
[9] abbreviates: solution in acetate mannitol buffer, pH 4, 2 hour infusion, 1 mg/kg (conc. 0.1 mg/mL), 0 h.
Where [10] appears, read: solution in acetate mannitol buffer, pH 4, 2 hour infusion, 1 mg/kg (conc. 0.1 mg/mL), 48 h.

Each structure is given as a SMILES string. In brackets after ≈: the same amount, converted by molar mass.

Chain of cytochrome P450 2D6 (P10635 whole entry): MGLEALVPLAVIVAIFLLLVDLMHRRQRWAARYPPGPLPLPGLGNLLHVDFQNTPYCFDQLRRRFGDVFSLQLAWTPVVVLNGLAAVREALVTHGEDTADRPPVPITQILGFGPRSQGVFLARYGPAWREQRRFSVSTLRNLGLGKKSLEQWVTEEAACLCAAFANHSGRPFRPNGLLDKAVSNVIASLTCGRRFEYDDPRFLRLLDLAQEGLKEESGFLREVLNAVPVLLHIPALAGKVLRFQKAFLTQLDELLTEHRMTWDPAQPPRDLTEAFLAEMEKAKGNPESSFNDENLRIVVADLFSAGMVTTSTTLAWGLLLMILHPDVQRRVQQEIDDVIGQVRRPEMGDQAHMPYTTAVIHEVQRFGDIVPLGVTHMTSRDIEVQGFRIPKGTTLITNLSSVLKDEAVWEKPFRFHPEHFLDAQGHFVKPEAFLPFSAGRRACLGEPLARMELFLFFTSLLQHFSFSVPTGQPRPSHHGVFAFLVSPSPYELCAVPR

As a reminder, the solubility is the concentration that dissolves in the medium under given conditions. Take `COc1ccc(CN[C@H](C)c2cccc(F)c2)cc1-c1ccc(C(F)(F)F)cc1` [Compound D, (1R)-1-(3-fluorophenyl)-N-((6-(methyloxy)-4′-(trifluoromethyl)-1,1′-biphenyl-3-yl)methyl)ethanamine]: in series [1], the solubility at 18 h is above 300 mg/mL.

As a reminder, the Solubility is the concentration that dissolves in the medium under given conditions. As for `C[C@@H](NCc1ccc(Cl)c(-c2ccc(OC(F)(F)F)cc2)c1)c1cccc2ccccc12` [Compound H, (1R)—N-((6-chloro-4′-((trifluoromethyl)oxy)-3-biphenyl)methyl)-1-(1-naphthalenyl)ethanolamine], in series [1], the Solubility is listed as above 50 mg/mL.

With `COc1ccc(CN[C@H](C)c2cccc(Cl)c2)cc1-c1ccc(C(F)(F)F)cc1` [Compound E, (1R)-1-(3-chlorophenyl)-N-((6-(methyloxy)-4′-(trifluoromethyl)-1,1′-biphenyl-3-yl)methyl)ethanamine], the solubility at 18 h in series [1] is above 300 mg/mL.

For the compound `C[C@@H](NCCCc1cccc(C(F)(F)F)c1)c1cccc2ccccc12` [Sensipar], at cytochrome P450 2D6, the metabolism entry was “metabolized by cytochrome P450 2D6”.

For `COc1ccc(CN[C@H](C)c2ccccc2)cc1-c1ccc(OC(F)(F)F)cc1` [Compound C, (1R)—N-((6-(methyloxy)-4′-((trifluoromethyl)oxy)-1,1′-biphenyl-3-yl)methyl)-1-phenylethanamine], the solubility at 18 h in series [1] is above 300 mg/mL.

With `COc1ccc(CN[C@H](C)c2ccccc2)cc1-c1ccc(C(F)(F)F)cc1` [Compound A, (1R)—N-((6-(methyloxy)-4′-(trifluoromethyl)-1,1′-biphenyl-3-yl)methyl)-1-phenylethanamine], the “difference in concentration of drug before or after exposure to tubing” value in series [2] (0.2 mg/mL emulsion (5% soybean oil, 2% lecithin, 2% glycerin, 20 mM TRIS, pH 9), 1 hour) is listed as “no significant difference”. In series [2] (0.2 mg/mL solution in acetate mannitol buffer at pH 4, ambient temperature), the “drug concentration after 1 hour holding in the tubing” value is listed as “about 50 % of initial concentration”. For the same compound, the “pH at which emulsion reaches neutral charge” value in series [3] is on record as “reaches neutral charge at a higher pH”. Also, in series [1], the solubility at 18 h is above 300 mg/mL. In addition, the “change in particle size” value in series [4] is listed as “No change”. Further, in the series on rabbit ear vein (dosed as a solution), the local venous toxicity result was “evidence of local venous toxicity”. The “effect on the vasculature” value in the series on rabbit ear vein (emulsion containing Compound A) is on record as “protective effect on the vasculature”. The Edema with rabbit ear vein (setting [5]), in the series with rabbit ear vein (setting [6]), in the series with rabbit ear vein (setting [7]), in the series with rabbit ear vein (setting [8]), in the series with rabbit ear vein (setting [9]) and in the series with rabbit ear vein (setting [10]) was 0.0 ± 0.0 each time. For the same compound, the Erythema in the series on rabbit ear vein (setting [5]) amounted to 0.0 ± 0.0; in the series with rabbit ear vein (setting [6]), 0.0 ± 0.0; with rabbit ear vein (setting [7]), 0.0 ± 0.0; with rabbit ear vein (setting [8]), 0.0 ± 0.0; with rabbit ear vein (setting [9]), 0.0 ± 0.0; in the series with rabbit ear vein (setting [10]), 1.3 ± 2.3. Further, the “Histopathology: severity and incidence of edema, hemorrhage and subacute inflammation” value in the series on rabbit ear vein (emulsion with TRIS buffer 20 mM, pH 9, 2-hour infusion, 2 and 6 mg/kg, compared to the solution) is given as “much lower in all thee animals as compared”; in the series on rabbit ear vein (solution in acetate mannitol buffer, pH 4, 2 hour infusion, 1 mg/kg, compared to placebo), “higher in the ears treated with Compound A”.

As for `COc1ccc(CN[C@H](C)c2cccc3ccccc23)cc1-c1ccc(OC(F)(F)F)cc1` [Compound B, (1R)—N-((6-(methyloxy)-4′-((trifluoromethyl)oxy)-1,1′-biphenyl-3-yl)methyl)-1-(1-naphthalenyl)ethanamine], the solubility at 18 h in series [1] was determined as 50 mg/mL (≈ 111 mM).

Turning to `COc1ccc([C@@H](C)N[C@H](C)c2ccccc2)cc1-c1ccc(C(F)(F)F)cc1` [Compound G], the Solubility in series [1] is listed as above 50 mg/mL.

Regarding `CCn1cc(-c2cccc(C(F)(F)F)c2)c2cc(CN[C@H](C)c3ccccc3)ccc21` [Compound F, (1R)—N-((1-ethyl-3-(3-(trifluoromethyl)phenyl)-1H-indol-5-yl)methyl)-1-phenylethanamine], in series [1], the solubility at 18 h was above 300 mg/mL.
